# Results from US20260184687A1, “DIHYDROINDENE DERIVATIVES AS MALT1 INHIBITORS” (C4X Discovery Limited, priority 2022, published 2026).
# Molecular target: T1, FL hMALT1 enzyme (Homo sapiens, UniProt Q9UDY8)
# T1 sequence (Q9UDY8 1-824): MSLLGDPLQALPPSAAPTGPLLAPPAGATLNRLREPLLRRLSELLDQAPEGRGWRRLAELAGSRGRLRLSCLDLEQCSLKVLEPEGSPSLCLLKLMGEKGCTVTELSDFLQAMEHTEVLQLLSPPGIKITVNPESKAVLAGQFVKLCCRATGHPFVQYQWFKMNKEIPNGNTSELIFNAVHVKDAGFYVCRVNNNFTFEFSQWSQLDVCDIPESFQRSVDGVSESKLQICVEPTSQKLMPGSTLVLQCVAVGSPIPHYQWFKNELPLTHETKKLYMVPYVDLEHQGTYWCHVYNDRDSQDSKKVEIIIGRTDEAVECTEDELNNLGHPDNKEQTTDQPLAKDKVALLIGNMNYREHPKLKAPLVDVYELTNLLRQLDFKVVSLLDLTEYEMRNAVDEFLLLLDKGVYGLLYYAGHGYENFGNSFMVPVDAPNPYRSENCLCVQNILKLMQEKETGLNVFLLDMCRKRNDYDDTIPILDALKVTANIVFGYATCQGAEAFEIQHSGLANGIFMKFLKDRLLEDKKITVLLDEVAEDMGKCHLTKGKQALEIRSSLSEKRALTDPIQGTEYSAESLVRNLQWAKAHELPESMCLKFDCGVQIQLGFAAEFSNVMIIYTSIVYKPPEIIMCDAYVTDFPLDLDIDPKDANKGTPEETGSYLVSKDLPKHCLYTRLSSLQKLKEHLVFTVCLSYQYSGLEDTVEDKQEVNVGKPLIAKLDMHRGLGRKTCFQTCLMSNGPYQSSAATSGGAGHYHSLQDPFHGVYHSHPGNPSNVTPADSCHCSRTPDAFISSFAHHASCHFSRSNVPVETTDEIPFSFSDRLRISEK
# Experiment: biochemical
# 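Also: Cell-free protease assay: enzyme preincubated with compound 30 min at room temperature, then cleavage of fluorogenic Ac-LVSR-AMC substrate (100 µM) tracked by fluorescence (ex 360/em 460 nm).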
row,SMILES,IC50 [nM]
1,"CN(C(=O)C1CC2(CCC(=O)N2)C1)[C@@H](c1ccc(NC2Cc3ccc(Cl)c(Cl)c3C2)cn1)C(F)(F)F (single isomer, unassigned) [Example 342]",1320
2,"CN(C(=O)C1CCS(=O)(=O)CC1)[C@@H](c1ccc(NC2Cc3ccc(Cl)c(Cl)c3C2)nc1)C(F)(F)F (single isomer, unassigned) [Example 344]",310
3,"CN(C(=O)C1CCS(=O)(=O)CC1)[C@@H](c1ccc(NC2Cc3ccc(Cl)c(Cl)c3C2)nc1)C(F)(F)F (single isomer, unassigned) [Example 345]",7
4,"CN(C(=O)[C@H]1CNC(=O)C1)[C@@H](c1ccc(NC2Cc3ccc(Cl)c(Cl)c3C2)nc1)C(F)(F)F (single isomer, unassigned) [Example 346]",1100
5,"Cc1ncc(C(=O)N(C)[C@@H](c2ccc(NC3Cc4ccc(Cl)c(F)c4C3)cn2)C(F)(F)F)cn1 (single isomer, unassigned) [Example 348]",410
6,"CN(C(=O)CC#N)[C@@H](c1ccc(NC2Cc3ccc(Cl)c(Cl)c3C2)cn1)C(F)(F)F (single isomer, unassigned) [Example 349]",1040
7,"CN(C(=O)C1CN(C(=O)C2CCOC2)C1)[C@@H](c1ccc(NC2Cc3ccc(Cl)c(Cl)c3C2)cn1)C(F)(F)F (single isomer, unassigned) [Example 351]",590
8,"CN(C(=O)C1CN(C(=O)C2CCOC2)C1)[C@@H](c1ccc(NC2Cc3ccc(Cl)c(Cl)c3C2)cn1)C(F)(F)F (single isomer, unassigned) [Example 354]",1000
9,"CN(C(=O)C1CCS(=O)(=O)C1)[C@@H](c1ccc(NC2Cc3ccc(Cl)c(Cl)c3C2)cn1)C(F)(F)F (single isomer, unassigned) [Example 357]",690
10,"CN(C(=O)C1CCS(=O)(=O)C1)[C@@H](c1ccc(NC2Cc3ccc(Cl)c(Cl)c3C2)cn1)C(F)(F)F (single isomer, unassigned) [Example 359]",480
11,"CN(C(=O)CN1CCCS1(=O)=O)[C@@H](c1ccc(NC2Cc3ccc(Cl)c(F)c3C2)cn1)C(F)(F)F (single isomer, unassigned) [Example 361]",7200
12,"CN(C(=O)CN1CCCS1(=O)=O)[C@@H](c1ccc(NC2Cc3ccc(Cl)c(F)c3C2)cn1)C(F)(F)F (single isomer, unassigned) [Example 362]",280
13,"Cc1nnc(N2CC(C(=O)N(C)[C@@H](c3ccc(NC4Cc5ccc(Cl)c(F)c5C4)cn3)C(F)(F)F)C2)o1 (single isomer, unassigned) [Example 364]",120
14,"Cc1nnc(N2CC(C(=O)N(C)[C@@H](c3ccc(NC4Cc5ccc(Cl)c(F)c5C4)cn3)C(F)(F)F)C2)o1 (single isomer, unassigned) [Example 365]",3640
15,"CN(C(=O)CO)[C@@H](c1ccc(NC2Cc3ccc(Cl)c(F)c3C2)cn1)C(F)(F)F (single isomer, unassigned) [Example 366]",3660
16,"CN(C(=O)CO)[C@@H](c1ccc(NC2Cc3ccc(Cl)c(F)c3C2)cn1)C(F)(F)F (single isomer, unassigned) [Example 367]",310
17,"CN(C(=O)C1CN(C(=O)C2COC2)C1)[C@@H](c1ccc(NC2Cc3ccc(Cl)c(F)c3C2)cn1)C(F)(F)F (single isomer, unassigned) [Example 370]",1370
18,"Cc1c(Cl)ccc2c1CC(Nc1ccc([C@H](N(C)C(=O)C3CCS(=O)(=O)CC3)C(F)(F)F)nc1)C2 (single isomer, unassigned) [Example 373]",490
19,"CN(C(=O)[C@H]1C[C@H](O)C1)[C@@H](c1ccc(NC2Cc3ccc(Cl)c(F)c3C2)cn1)C(F)(F)F (single isomer, unassigned) [Example 375]",1320

row,SMILES,IC50 [nM]
1,"CC(=O)N1CC(C(=O)N(C)[C@@H](c2ccc(NC3Cc4ccc(Cl)c(Cl)c4C3)cn2)C(F)(F)F)C1 (single isomer, unassigned) [Example 376]",1200
2,"CN(C(=O)C1CN(C(=O)CO)C1)[C@@H](c1ccc(NC2Cc3ccc(Cl)c(Cl)c3C2)cn1)C(F)(F)F (single isomer, unassigned) [Example 378]",1290
3,"CN(C(=O)C1CN(C(=O)CO)C1)[C@@H](c1ccc(NC2Cc3ccc(Cl)c(Cl)c3C2)cn1)C(F)(F)F (single isomer, unassigned) [Example 379]",46
4,"CN(C(=O)CNS(C)(=O)=O)[C@@H](c1ccc(NC2Cc3ccc(Cl)c(Cl)c3C2)cn1)C(F)(F)F (single isomer, unassigned) [Example 380]",1870
5,"CN(C(=O)CNS(C)(=O)=O)[C@@H](c1ccc(NC2Cc3ccc(Cl)c(Cl)c3C2)cn1)C(F)(F)F (single isomer, unassigned) [Example 381]",77
6,"CN(C(=O)[C@H]1C[C@@H](O)C1)[C@@H](c1ccc(NC2Cc3ccc(Cl)c(F)c3C2)cn1)C(F)(F)F (single isomer, unassigned) [Example 382]",95
7,"CN(C(=O)[C@H]1C[C@@H](O)C1)[C@@H](c1ccc(NC2Cc3ccc(Cl)c(F)c3C2)cn1)C(F)(F)F (single isomer, unassigned) [Example 383]",1600
8,"CN(C(=O)C1CN(C(=O)C2CCO2)C1)[C@@H](c1ccc(NC2Cc3ccc(Cl)c(F)c3C2)cn1)C(F)(F)F (single isomer, unassigned) [Example 385]",130
9,"CN(C(=O)C1CN(C(=O)C2CCO2)C1)[C@@H](c1ccc(NC2Cc3ccc(Cl)c(F)c3C2)cn1)C(F)(F)F (single isomer, unassigned) [Example 386]",2670
10,"CN(C(=O)C1CN(C(=O)C2CCO2)C1)[C@@H](c1ccc(NC2Cc3ccc(Cl)c(F)c3C2)cn1)C(F)(F)F (single isomer, unassigned) [Example 387]",310
11,"CN(C(=O)[C@H]1CCC(=O)NC1)[C@@H](c1ccc(NC2Cc3ccc(Cl)c(F)c3C2)nc1)C(F)(F)F (single isomer, unassigned) [Example 388]",490
12,"CN(C(=O)[C@H]1CCC(=O)NC1)[C@@H](c1ccc(NC2Cc3ccc(Cl)c(F)c3C2)nc1)C(F)(F)F (single isomer, unassigned) [Example 389]",40
13,"CC(=O)N1CCC[C@@H]1C(=O)N(C)[C@@H](c1ccc(N[C@H]2Cc3ccccc3C2(C)C)cn1)C(F)(F)F [Example 171, (R)-1-Acetyl-N—((S)-1-(5-(((S)-1,1-dimethyl-2,3-dihydro-1H-inden-2-yl)amino)pyridin-2-yl)-2,2,2-trifluoroethyl)-N-methylpyrrolidine-2-carboxamide]",210
14,"CN(C(=O)C1CC2(CNC2)C1)[C@@H](c1ccc(N[C@H]2Cc3ccccc3C2(C)C)cn1)C(F)(F)F [Example 173, N—((S)-1-(5-(((S)-1,1-Dimethyl-2,3-dihydro-1H-inden-2-yl)amino)pyridin-2-yl)-2,2,2-trifluoroethyl)-N-methyl-2-azaspiro[3.3]heptane-6-carboxamide]",130
15,"CN(C(=O)[C@@H]1CC[C@H](NC(=O)C(F)(F)F)C1)[C@@H](c1ccc(N[C@H]2Cc3ccccc3C2(C)C)cn1)C(F)(F)F [Example 184, (1R,3S)—N—((S)-1-(5-(((S)-1,1-Dimethyl-2,3-dihydro-1H-inden-2-yl)amino)pyridin-2-yl)-2,2,2-trifluoroethyl)-N-methyl-3-(2,2,2-trifluoroacetamido)cyclopentane-1-carboxamide]",150
16,"CNC(=O)C12CC(C(=O)N(C)[C@@H](c3ccc(N[C@@H]4Cc5ccccc5C4(C)C)cn3)C(F)(F)F)(C1)C2 [Example 203, N^1—((S)-1-(5-(((R)-1,1-Dimethyl-2,3-dihydro-1H-inden-2-yl)amino)pyridin-2-yl)-2,2,2-trifluoroethyl)-N^1,N^3-dimethylbicyclo[1.1.1]pentane-1,3-dicarboxamide]",120
17,"CC(=O)N[C@H]1CC[C@@H](C(=O)N(C)[C@@H](c2ccc(N[C@@H]3Cc4ccccc4C3(C)C)cn2)C(F)(F)F)C1 [Example 204, (1R,3S)-3-Acetamido-N—((S)-1-(5-(((R)-1,1-dimethyl-2,3-dihydro-1H-inden-2-yl)amino)pyridin-2-yl)-2,2,2-trifluoroethyl)-N-methylcyclopentane-1-carboxamide]",220
18,"CN(C(=O)C1CCS(=O)(=O)CC1)[C@@H](c1ccc(NC2Cc3cccc(Br)c3C2)cn1)C(F)(F)F (stereo partly drawn) [Example 237, N-((1S)-1-(5-((4-Bromo-2,3-dihydro-1H-inden-2-yl)amino)pyridin-2-yl)-2,2,2-trifluoroethyl)-N-methyltetrahydro-2H-thiopyran-4-carboxamide 1,1-dioxide]",110
19,"CN(C(=O)C1CCS(=O)(=O)CC1)[C@@H](c1ccc(NC2Cc3c(F)ccc(F)c3C2)cn1)C(F)(F)F [Example 273, (S)—N-(1-(5-((4,7-Difluoro-2,3-dihydro-1H-inden-2-yl)amino)pyridin-2-yl)-2,2,2-trifluoroethyl)-N-methyltetrahydro-2H-thiopyran-4-carboxamide 1,1-dioxide]",460
